Source: patent publication US20090286831A1, “VR1 Receptor Ligands and u-Opioid Receptor Ligands for the Treatment of Pain” (priority 2006, published 2009)
Read-outs that look alike come from different tables or passages of the source. Marks after values point to notes of the source that are not given here.

Assays:
[1] = target: T1, vanilloid receptor 1 (VR1/TRPV1) (Homo sapiens, UniProt Q8NER1); assay: FLIPR capsaicin assay; type: cell-based, human or rat
T1 construct: expressed in transfected cells; host or cells: CHO K1 cells (ECACC), stably transfected
T1 sequence (Q8NER1 whole entry): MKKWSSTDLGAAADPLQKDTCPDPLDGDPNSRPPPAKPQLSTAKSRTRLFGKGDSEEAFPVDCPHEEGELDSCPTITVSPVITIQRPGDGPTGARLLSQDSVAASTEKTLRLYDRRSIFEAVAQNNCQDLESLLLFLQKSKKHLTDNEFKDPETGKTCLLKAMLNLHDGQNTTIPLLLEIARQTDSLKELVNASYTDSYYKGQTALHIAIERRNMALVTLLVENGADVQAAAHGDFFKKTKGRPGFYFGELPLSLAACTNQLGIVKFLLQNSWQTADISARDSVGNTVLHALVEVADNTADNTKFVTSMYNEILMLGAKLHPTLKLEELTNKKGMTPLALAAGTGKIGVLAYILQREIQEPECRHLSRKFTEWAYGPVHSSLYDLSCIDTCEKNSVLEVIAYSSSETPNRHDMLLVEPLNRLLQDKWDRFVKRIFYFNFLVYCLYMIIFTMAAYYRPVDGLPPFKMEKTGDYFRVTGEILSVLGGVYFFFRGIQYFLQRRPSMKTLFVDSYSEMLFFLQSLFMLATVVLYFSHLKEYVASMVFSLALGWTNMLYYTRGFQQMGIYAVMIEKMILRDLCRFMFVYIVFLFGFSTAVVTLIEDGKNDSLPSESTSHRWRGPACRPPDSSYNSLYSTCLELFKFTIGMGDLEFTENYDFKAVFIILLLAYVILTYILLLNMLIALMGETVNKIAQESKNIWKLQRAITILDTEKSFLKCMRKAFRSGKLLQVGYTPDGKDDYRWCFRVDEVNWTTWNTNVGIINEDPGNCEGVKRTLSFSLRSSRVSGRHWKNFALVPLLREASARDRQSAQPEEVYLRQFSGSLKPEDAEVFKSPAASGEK
From the text: (§1) The agonist or antagonist effect of substances can be determined at the vanilloid receptor 1 (VR1/TRPV1) of the human and rat species with the assay described below. Accordingly, the Ca^2+ influx through the channel is quantified by means of a Ca^2+-sensitive dye (Fluo-4, Molecular Probes Europe BV, Leiden, The Netherlands) in the fluorescent imaging plate reader (FLIPR, Molecular Devices, Sunnyvale, USA).
(§2) Chinese hamster ovary cells (CHO K1 cells, ECACC, England) are stably transfected with human or rat VR1 cDNA. For functional studies these cells are plated onto poly-D-lysine-coated black 96-hole plates with a clear base (BD Biosciences, Heidelberg, Germany) in a density of 25 000 cells/cavity. The cells are incubated overnight at 37° C. with 5% CO2 in culture medium (nutrient mixture Ham's F12, Gibco Invitrogen GmbH, Karlsruhe, Germany) with 10% vol. FBS (foetal bovine serum, Gibco Invitrogen GmbH, Karlsruhe, Germany) and 18 μg/ml of L-proline (Gibco Invitrogen GmbH, Karlsruhe, Germany). On the following day, the cells are laden with 2 μM Fluo-4 and 0.01% vol. Pluronic F127 (Molecular Probes Europe BV, Leiden, The Netherlands) in HBSS buffer (Hank's buffered saline solution, Gibco Invitrogen GmbH, Karlsruhe, Germany) for 30 min at 37° C. The plates are then washed 3 times in HBSS buffer and after further incubation for 15 minutes at room temperature are placed in the FLIPR for the Ca^2+ measurement. In this case, the Ca^2+-dependent fluorescence is measured before and after the addition of substances (λex=488 nm, λem=540 nm). Quantification occurs as a result of the measurement of the highest fluorescence intensity (FC, fluorescence counts) over time.
The FLIPR protocol consists of 2 substance additions. Test substances (10 μM) are firstly pipetted onto the cells and the Ca^2+ influx is compared to the control (capsaicin 10 μM). This gives the specification in % activation in relation to the Ca^2+ signal after adding 10 μM of capsaicin. After 5 minutes incubation 100 nM of capsaicin are applied and the influx of Ca^2+ likewise determined. Desensitising agonists and antagonists lead to a suppression of the Ca^2+ influx. Inhibition values [%] are calculated in comparison to the maximum achievable inhibition with a saturating concentration of […] or another reference antagonist. The test substance is added in different concentrations to determine the IC50 and functional Ki value ((f)Ki). Triple determinations (n=3) are conducted and these are repeated in at least one further independent experiment (N>=2). A capsaicin dose action curve is generated to incorporate the thus determined EC50 values into the associated (f)Ki determination. EC50/IC50 values are calculated using ‘Prism4’ software from GraphPad Software™ or with XLfit4™ (ID Business Solutions Ltd.). (f)Ki values are calculated in accordance with the modified Cheng-Prusoff equation (Cheng, Prusoff; Biochem. Pharmacol. 22, 3099-3108, 1973). Testing for non-specific inhibition of the fluorescence as a result of the substances is conducted by activating wild type CHO K1 cells incubated with the same test substances with ATP (10 μM final concentration).

[2] = target: T2, human recombinant μ-opioid receptor (Homo sapiens, UniProt P35372); assay: Ki value at the μ-opioid receptor (Experiment 4); type: binding
T2 construct: expressed in transfected cells; host or cells: CHO-K1 cells (membrane preparation)
T2 sequence (P35372 whole entry): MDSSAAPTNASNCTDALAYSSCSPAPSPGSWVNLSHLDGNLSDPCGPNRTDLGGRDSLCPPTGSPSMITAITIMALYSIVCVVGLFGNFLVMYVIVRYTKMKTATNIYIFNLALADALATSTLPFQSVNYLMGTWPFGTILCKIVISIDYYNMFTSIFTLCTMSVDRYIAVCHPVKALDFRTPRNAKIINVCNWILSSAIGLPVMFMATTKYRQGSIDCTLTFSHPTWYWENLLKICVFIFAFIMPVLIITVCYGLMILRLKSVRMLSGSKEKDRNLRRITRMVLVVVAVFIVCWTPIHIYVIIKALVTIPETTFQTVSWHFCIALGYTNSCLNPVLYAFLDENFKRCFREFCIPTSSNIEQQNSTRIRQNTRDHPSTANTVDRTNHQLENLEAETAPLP

[3] = target: T3, human VR1 (Homo sapiens, UniProt Q8NER1); assay: FLIPR pH assay; type: cell-based
T3 construct: expressed in transfected cells; host or cells: CHO K1 cells (ECACC), stably transfected
T3 sequence (Q8NER1 whole entry): as the sequence (Q8NER1 whole entry) above
From the text: as §1, §2
In the pH assay, HBSS that now contains 60 mM MES instead of capsaicin is applied to human VR1-transfected CHO K1 cells (adjusted pH value of the addition solution is 4.95). Percentage inhibition and IC50 values are raised and evaluated as already described for the capsaicin test.

[4] = test system: rats; assay: Tail-flick (hot beam) test in rats; type: in vivo, rat; conditions: dosage 1 mg/kg p.o.
[5] = test system: rats after spinal nerve ligature; assay: Mono-neuropathic pain after spinal nerve ligature (Chung model), electronic von Frey; type: in vivo, rat
Method: Sprague Dawley rats (140-160 g body weight) were used for the following animal models. Sprague Dawley rats (140-160 g body weight) from a commercial breeder (Janvier, Genest St. Isle, France) were used. The animals were kept under standard conditions: light-dark rhythm (06:00 to 18:00 h light, 18:00 to 06:00 h dark), room temperature 19-23° C., relative air humidity 45-65%, air exchange 19 times per hour, air movement <0.2 m/s, free choice of tap water and standard feed, Macrolon Type 4 cages with 5 animals per cage. The solutions of the test substances and/or vehicles (10% […], 5% Cremophor EL, 5% glucose) were administered intravenously.
Under pentobarbital narcosis (Narcoren®, […] i.p., Merial GmbH, Hallbergmoos, Germany), the L5, L6 spinal nerves were firmly bound. The left L5 and L6 spinal nerves were exposed by removing a piece of paravertebral muscle and a portion of the left spinal process of the L5 lumbar vertebral body. The L5 and L6 spinal nerves were carefully isolated and bound with a firm ligature (NC silk, black, USP 5/0, metric 1, Braun Melsungen AG, Melsungen, Germany) (Kim and Chung, An experimental model for peripheral neuropathy produced by segmental spinal nerve ligature in the rat, Pain, 50, 1992, 355-363). After haemostasis was determined, the muscle and adjacent tissue were sutured and the wound closed by metal clamps. After a one-week recovery period the animals were placed in cages with a wire base closed to the top by a plastic hood for measurement of the mechanical allodynia. The animals were kept in this cage until their explorative behaviour had decreased.
The threshold for the tactile allodynia was measured by means of an electronic von Frey anaesthesiometer (Somedic AB, Malmö, Sweden). The animals were randomly divided into groups of 10 animals. Each group received an individual dose of test substance or vehicle and the measurements were conducted 0.5 h before application and at various times after intravenous administration. Both the ipsi- and the contra-lateral rear paw were tested. The median of five stimulations gave a measured data point. The data were determined as % maximum possible effect (% MPE) from the pre-tests of the Chung individual animals (=0% MPE) and the test values of an independent sham control group (=100% MPE). The effect of the test substance and the vehicle was calculated for each measurement time (i.e. 0.5, 1 and 3 h after application) as inter-individual % MPE value. […] The corresponding threshold values are given in gram (mean±SEM).

[6] = human VR1-transfected CHO K1 cells, 60 mM MES, pH 4.95, read-out: IC50 (pH)
[7] = functional Ki, capsaicin 100 nM, VR1-transfected CHO K1 cells, modified Cheng-Prusoff, read-out: f(Ki) (VR1)
[8] = Oxycodone 2.5 mg/kg i.v. group, Control (pre-test 0.5 h before application)
[9] = Oxycodone 2.5 mg/kg i.v., 30 min
[10] = Oxycodone 2.5 mg/kg i.v., 60 min
[11] = Oxycodone 2.5 mg/kg i.v., 180 min
[12] = Oxycodone 5 mg/kg i.v. group, Control (pre-test 0.5 h before application)
[13] = Oxycodone 5 mg/kg i.v., 180 min
[14] = read-out: % inhibition (pH assay)
[15] = AMG 517 2.5 mg/kg i.v. group, Control (pre-test 0.5 h before application)
[16] = AMG 517 2.5 mg/kg i.v., 180 min

With `CC(C(=O)NCc1ccc(C(F)(F)F)nc1N1CCC(Cc2ccccc2)(N(C)C)CC1)c1ccc(NS(C)(=O)=O)c(F)c1` (centres unmarked) [[5], N-((2-(4-benzyl-4-(dimethylamino)piperidin-1-yl)-6-(trifluoromethyl)pyridin-3-yl)methyl)-2-(3-fluoro-4-(methylsulfonamido)phenyl)propanamide] the Ki [1] was 6.3 nM, the Ki [2] was 715 nM and the IC50 [3, 6] was 111 nM.

In the case of `CC(C(=O)NCc1ccc(C(C)(C)C)nc1N1CCC(Cc2ccccc2)(N(C)C)CC1)c1ccc(NS(C)(=O)=O)c(F)c1` (centres unmarked) [[6], N-((2-(4-benzyl-4-(dimethylamino)piperidin-1-yl)-6-tert-butylpyridin-3-yl)methyl)-2-(3-fluoro-4-(methylsulfonamido)phenyl)propanamide], the Ki [1] is reported as 2.6 nM, the Ki [2] is reported as 3130 nM and the IC50 [3, 6] is reported as 1360 nM.

`CC(C(=O)NCc1ccc(C(F)(F)F)nc1N1CCC(c2ccccc2)(N(C)C)CC1)c1ccc(NS(C)(=O)=O)c(F)c1` (centres unmarked) [[1], N-((2-(4-(dimethylamino)-4-phenylpiperidin-1-yl)-6-(trifluoromethyl)pyridin-3-yl)methyl)-2-(3-fluoro-4-(methylsulfonamido)phenyl)propanamide] was tested, and the Ki [1, 7] was 31.3 nM, the Ki [2] was 46 nM and the “Tail-Flick [% MPE]” value [4] was 50%^2) % MPE. It also gave an IC50 [3] of 806 nM.

`CC(C(=O)NCc1ccc(C(F)(F)F)nc1N1CCC(Cc2cccc(F)c2)(N(C)C)CC1)c1ccc(NS(C)(=O)=O)c(F)c1` (centres unmarked) [[9], N-((2-(4-(dimethylamino)-4-(3-fluorobenzyl)piperidin-1-yl)-6-(trifluoromethyl)pyridin-3-yl)methyl)-2-(3-fluoro-4-(methylsulfonamido)phenyl)propanamide] gave a Ki [1] of 2.4 nM, a Ki [2] of 2080 nM and an IC50 [3, 6] of 145 nM.

In the case of `COc1ccc2c3c1O[C@H]1C(=O)CC[C@@]4(O)[C@@H](C2)N(C)CC[C@]314` [Oxycodone, oxycodone], the “pull-away threshold value, contra-lateral rear paw, mean” value [5, 8] is reported as 54.0 gram, the “pull-away threshold value, ipsi-lateral rear paw, mean” value [5, 8] is reported as 21.0 gram and the “pull-away threshold value, contra-lateral rear paw, mean” value [5, 9] is reported as 67.8 gram. The “pull-away threshold value, ipsi-lateral rear paw, mean” value [5, 9] was 38.2 gram, the “pull-away threshold value, contra-lateral rear paw, mean” value [5, 10] was 53.1 gram and the “pull-away threshold value, ipsi-lateral rear paw, mean” value [5, 10] was 28.0 gram. The “pull-away threshold value, contra-lateral rear paw, mean” value [5, 11] was 52.5 gram, the “pull-away threshold value, ipsi-lateral rear paw, mean” value [5, 11] was 21.9 gram and the “pull-away threshold value, contra-lateral rear paw, mean” value [5, 12] was 52.6 gram. The “pull-away threshold value, ipsi-lateral rear paw, mean” value [5, 12] was 22.8 gram, the “pull-away threshold value, contra-lateral rear paw, mean” value ([5]; Oxycodone 5 mg/kg i.v., 30 min) was 70.0 gram and the “pull-away threshold value, ipsi-lateral rear paw, mean” value ([5]; Oxycodone 5 mg/kg i.v., 30 min) was 41.9 gram. For the same compound, the “pull-away threshold value, contra-lateral rear paw, mean” value ([5]; Oxycodone 5 mg/kg i.v., 60 min) was 56.4 gram, the “pull-away threshold value, ipsi-lateral rear paw, mean” value ([5]; Oxycodone 5 mg/kg i.v., 60 min) was 32.1 gram and the “pull-away threshold value, contra-lateral rear paw, mean” value [5, 13] was 51.4 gram. For the same compound, the “pull-away threshold value, ipsi-lateral rear paw, mean” value [5, 13] was 22.0 gram and the “efficacy (conclusion)” value ([5]; combination of two threshold doses of the same opioid, pull away increased on ipsi- and contra-lateral paw) was “additive antinociceptive efficacy”.

`Cc1cc(C(C)C(=O)NCc2ccc(C(F)(F)F)cc2N2CCC(Cc3ccccc3)(N(C)C)CC2)ccc1NS(C)(=O)=O` (centres unmarked) [[8], N-(2-(4-benzyl-4-(dimethylamino)piperidin-1-yl)-4-(trifluoromethyl)benzyl)-2-(3-methyl-4-(methylsulfonamido)phenyl)propanamide] gave a Ki [1, 7] of 2.5 nM, a Ki [2] of 22 nM and an inhibition at 1 µM [3, 14] of 19%. The inhibition at 5 µM [3, 14] was 36% and the inhibition at 10 µM [3, 14] was 58%.

`CC(C(=O)NCc1ccc(C(F)(F)F)nc1N1CCC(c2cccs2)(N(C)C)CC1)c1ccc(NS(C)(=O)=O)c(F)c1` (centres unmarked) [[3], N-((2-(4-(dimethylamino)-4-(thiophen-2-yl)piperidin-1-yl)-6-(trifluoromethyl)pyridin-3-yl)methyl)-2-(3-fluoro-4-(methylsulfonamido)phenyl)propanamide] was tested, and the Ki [1] was 10.9 nM, the Ki [2] was 119 nM and the IC50 [3, 6] was 335 nM.

Work on `CC(C(=O)NCc1ccc(C(C)(C)C)nc1N1CCC(c2ccccc2)(N(C)C)CC1)c1ccc(NS(C)(=O)=O)c(F)c1` (centres unmarked) [[2], N-((6-tert-butyl-2-(4-(dimethylamino)-4-phenylpiperidin-1-yl)pyridin-3-yl)methyl)-2-(3-fluoro-4-(methylsulfonamido)phenyl)propanamide] yielded a Ki [1] of 3.7 nM, a Ki [2] of 350 nM and an IC50 [3, 6] of 368 nM.

In the case of `CC(=O)Nc1nc2c(Oc3cc(-c4ccc(C(F)(F)F)cc4)ncn3)cccc2s1` [AMG 517], the “pull-away threshold value, contra-lateral rear paw, mean” value [5, 15] is reported as 49.9 gram, the “pull-away threshold value, ipsi-lateral rear paw, mean” value [5, 15] is reported as 20.6 gram and the “pull-away threshold value, contra-lateral rear paw, mean” value ([5]; AMG 517 2.5 mg/kg i.v., 30 min) is reported as 50.9 gram. The “pull-away threshold value, ipsi-lateral rear paw, mean” value ([5]; AMG 517 2.5 mg/kg i.v., 30 min) was 29.2 gram, the “pull-away threshold value, contra-lateral rear paw, mean” value ([5]; AMG 517 2.5 mg/kg i.v., 60 min) was 49.6 gram and the “pull-away threshold value, ipsi-lateral rear paw, mean” value ([5]; AMG 517 2.5 mg/kg i.v., 60 min) was 21.1 gram. The “pull-away threshold value, contra-lateral rear paw, mean” value [5, 16] was 51.7 gram and the “pull-away threshold value, ipsi-lateral rear paw, mean” value [5, 16] was 20.7 gram.

`Cc1cc(C(C)C(=O)NCc2ccc(C(F)(F)F)cc2N2CCC(Cc3cccc(F)c3)(N(C)C)CC2)ccc1NS(C)(=O)=O` (centres unmarked) [[11], N-(2-(4-(dimethylamino)-4-(3-fluorobenzyl)piperidin-1-yl)-4-(trifluoromethyl)benzyl)-2-(3-methyl-4-(methylsulfonamido)phenyl)propanamide] was tested, and the Ki [1, 7] was 1.6 nM, the Ki [2] was 50 nM and the inhibition at 5 µM [3, 14] was 35%. For the same compound, the inhibition at 10 µM [3, 14] was 38%.
